Measured values: PubChem BioAssay (NCI)
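Five compound concentrations were applied to cells in 96-well plates for 48 hours; endpoints were derived by simple linear interpolation of the resulting dose-response curve. TGI is the concentration that stops growth completely.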

Key:
Assay in all cases: NCI tumour cell line growth inhibition, 48 h
[1] = test system: A498 renal
[2] = test system: DU-145 prostate
[3] = test system: HCT-15 colon
[4] = test system: HL-60(TB) leukemia
[5] = test system: HT29 colon
[6] = test system: IGROV1 ovarian
[7] = test system: LOX IMVI melanoma
[8] = test system: M14 melanoma
[9] = test system: MALME-3M melanoma
[10] = test system: MDA-N
[11] = test system: NCI/ADR-RES ovarian
[12] = test system: OVCAR-8 ovarian
[13] = test system: PC-3 prostate
[14] = test system: RXF 393 renal
[15] = test system: SF-268 CNS
[16] = test system: SK-MEL-2 melanoma
[17] = test system: SK-OV-3 ovarian
[18] = test system: SNB-75 CNS
[19] = test system: U251 CNS
[20] = test system: UO-31 renal

Row | Structure (SMILES) | TGI [1] [µM] | TGI [2] [µM] | TGI [3] [µM] | TGI [4] [µM] | TGI [5] [µM] | TGI [6] [µM] | TGI [7] [µM] | TGI [8] [µM] | TGI [9] [µM] | TGI [10] [µM] | TGI [11] [µM] | TGI [12] [µM] | TGI [13] [µM] | TGI [14] [µM] | TGI [15] [µM] | TGI [16] [µM] | TGI [17] [µM] | TGI [18] [µM] | TGI [19] [µM] | TGI [20] [µM]
1 | c1cc2nnc1SCCCSc1ccc(nn1)SCCCSc1ccc(nn1)SCCCS2 | > 100 | > 100 | > 100 | > 100 | > 100 | > 100 | > 100 | > 100 | > 100 | > 100 | > 100 | > 100 | > 100 | > 100 | > 100 | > 100 | > 100 | 83.4 | > 100 | > 100
2 | CCOC(=O)CSc1nnc(CSc2nc(-c3ccccc3)c(-c3ccccc3)[nH]2)n1-c1ccccc1 | 33.2 | 30.1 | > 100 | 98.8 | > 100 | > 100 | > 100 | > 62.4 | > 100 | > 100 | > 100 | 35.3 | 43.8 | 39.5 | > 81.3 | > 31.6 | 43.8 | > 100 | > 100 | 38.9
3 | CCOC(=O)NC(C(=O)OCC)(N1CCN(c2cc3c(cc2F)c(=O)c(C(=O)O)cn3CC)CC1)C(F)(F)F (stereo not given) | > 100 | > 100 | > 100 | > 100 | > 100 | > 100 | > 100 | > 100 | > 100 | > 100 | > 100 | 34 | > 100 | > 100 | > 100 | > 100 | > 100 | > 100 | > 100 | > 100
4 | Cn1cc(S(=O)(=O)NC(=O)Nc2ccc(Cl)cc2)c2ccccc21 | > 100 | > 100 | 20.7 | > 100 | > 100 | > 100 | > 100 | > 100 | > 100 | > 100 | > 100 | > 100 | > 100 | > 100 | > 100 | > 100 | > 100 | > 100 | > 100 | > 100
5 | C[N+](C)(C)/N=C/c1ccc(O)c(O)c1 | > 100 | > 100 | > 100 | > 100 | > 100 | > 100 | > 100 | > 100 | > 100 | > 100 | > 100 | > 100 | > 100 | > 100 | > 100 | > 100 | > 100 | > 100 | > 100 | > 100
6 | CCOC(=O)C1=c2[nH]c3cccc4cccc(c43)n2C(=O)CC1c1ccccc1 (stereo not given) | > 100 | > 100 | > 100 | > 100 | > 100 | > 100 | > 100 | > 100 | > 100 | > 100 | > 100 | > 100 | > 100 | > 100 | > 100 | > 100 | > 100 | > 100 | > 100 | > 100
7 | O=C(NNCC(F)(F)F)c1ccncc1 | > 100 | > 100 | > 100 | > 100 | > 100 | > 100 | > 100 | > 100 | > 100 | > 100 | > 100 | > 100 | > 100 | > 100 | > 100 | > 100 | > 100 | > 100 | > 100 | > 100
8 | CC1CCCCN1CC(=O)c1ccc2c(c1)Sc1ccccc1O2 (stereo not given) | 38.6 | 67.8 | 45.2 | 47 | 22.7 | 19.9 | 38.7 | 38.3 | 26.8 | 32.2 | 35.5 | 30.8 | 26.1 | 31.1 | 34.2 | 32.4 | 31.6 | 22.9 | 31.9 | 25.7
9 | O=C1CCCC(=O)N1n1c(Cc2ccccc2)n[nH]c1=O | > 100 | > 100 | > 100 | > 100 | > 100 | > 100 | > 100 | > 100 | > 100 | > 100 | > 100 | > 100 | > 100 | > 100 | > 100 | > 100 | > 100 | > 100 | > 100 | > 100
10 | CSc1c(C(=O)Nc2ccc(C)cc2)c(N)n(N)c(=O)c1C#N | > 100 | > 100 | > 100 | > 100 | > 100 | > 100 | > 100 | > 100 | > 100 | > 100 | > 100 | > 100 | > 100 | > 100 | > 100 | > 100 | > 100 | > 100 | > 100 | > 100
11 | Cc1[nH]n(C(=N)N)c(=O)c1CCO | > 100 | > 100 | > 100 | > 100 | > 100 | > 100 | > 100 | > 100 | > 100 | > 100 | 8.93 | 3.17 | > 100 | > 100 | > 100 | > 100 | > 100 | > 100 | > 100 | > 100
12 | O=C(O)CC1NC(/C(=C/c2ccccc2O)NC(=O)c2ccccc2)OC1=O (stereo not given) | > 100 | > 100 | > 100 | > 100 | > 100 | > 70.9 | > 100 | > 100 | > 100 | > 100 | > 100 | > 87.8 | > 100 | 99.2 | > 45.1 | > 100 | > 100 | > 63.6 | > 80.8 | > 63.6
13 | OC(c1cc2ccccc2[nH]1)C1(c2cccnc2)SCCCS1 (stereo not given) | > 100 | > 100 | > 100 | > 100 | > 100 | > 100 | > 100 | > 100 | > 100 | > 100 | > 100 | > 100 | > 100 | > 100 | > 100 | > 100 | > 100 | > 100 | > 100 | > 100
14 | CC(C)COC(=O)OC(=O)c1ccc(N(C)Cc2cnc3nc(N)nc(N)c3n2)cc1 | > 100 | > 100 | > 100 | > 100 | > 100 | > 100 | > 100 | > 100 | > 100 | > 100 | > 100 | > 100 | > 100 | > 100 | > 100 | > 100 | > 100 | > 100 | > 100 | > 100
15 | CC(=O)Oc1c2c(c(CC=C(C)C)c3c1C(=O)C1=C[C@@H]4CC5C(C)(C)OC(C/C=C(/C)C(=O)O)(C4=O)[C@@]15O3)OC(C)(CCC=C(C)C)C=C2 (stereo not given in full) | 1.82 | 0.838 | 0.978 | 10.6 | 0.598 | 0.294 | 0.247 | 0.814 | 0.558 | 0.536 | 2.7 | 0.747 | 1.24 | 0.336 | 1.56 | 0.982 | 1.91 | 1.39 | 0.339 | 0.526
